Literature values in patent US7785578B2, “Non-invasive ocular drug delivery” (Aciont, Inc., priority 2002, dated 2010).

Details: following a 5 mg peribulbar injection; comparable to a high oral dose (approximately 7.5 mg)

systemic levels in plasma: 60 ng/mL
Structure (SMILES): C[C@@H]1C[C@H]2[C@@H]3CCC4=CC(=O)C=C[C@]4(C)[C@@]3(F)[C@@H](O)C[C@]2(C)[C@@]1(O)C(=O)CO [dexamethasone]
